# Laboratory results as given in patent publication US20180099931A1 (AbbVie S.à.r.l., priority 2016, published 2018).
# Read-outs that look alike come from different tables or passages of the source.
# Molecular target: T1, F508delCFTR (Homo sapiens, UniProt P13569, DEL508-508)
# T1 construct: expressed in transfected cells; host or cells: CFBE41o- human lung-derived epithelial cells (CFBE4lo-F508delCFTR-HRP), doxycycline-inducible
# Test: Cell Surface Expression-Horse Radish Peroxidase (CSE-HRP) Assay;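 on Maximum % activity (with co-corrector): co-corrector and positive control are both the same reference corrector at 2 µM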;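 on Maximum % activity (without co-corrector): percent of the 2 µM on-plate positive control corrector response above DMSO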
# Type: cell-based
# Conditions: for Emax: read-out: Maximum % activity (without co-corrector)
# [1] = test compound without co-corrector, maximum at any tested concentration, normalized to on-plate positive control
# [2] = test compound without co-corrector, read-out: EC50 (without co-corrector)
# [3] = with co-corrector (2 μM of 3-[(2R,4R)-4-({[1-(2,2-difluoro-1,3-benzodioxol-5-yl)cyclopropyl]carbonyl}amino)-7-methoxy-3,4-dihydro-2H-chromen-2-yl]benzoic acid), maximum at any tested concentration, normalized to on-plate positive control
# [4] = with co-corrector (2 μM of 3-[(2R,4R)-4-({[1-(2,2-difluoro-1,3-benzodioxol-5-yl)cyclopropyl]carbonyl}amino)-7-methoxy-3,4-dihydro-2H-chromen-2-yl]benzoic acid), read-out: EC50 (with co-corrector)
# T1 sequence (P13569 with tags, fused parts or gaps DEL508-508): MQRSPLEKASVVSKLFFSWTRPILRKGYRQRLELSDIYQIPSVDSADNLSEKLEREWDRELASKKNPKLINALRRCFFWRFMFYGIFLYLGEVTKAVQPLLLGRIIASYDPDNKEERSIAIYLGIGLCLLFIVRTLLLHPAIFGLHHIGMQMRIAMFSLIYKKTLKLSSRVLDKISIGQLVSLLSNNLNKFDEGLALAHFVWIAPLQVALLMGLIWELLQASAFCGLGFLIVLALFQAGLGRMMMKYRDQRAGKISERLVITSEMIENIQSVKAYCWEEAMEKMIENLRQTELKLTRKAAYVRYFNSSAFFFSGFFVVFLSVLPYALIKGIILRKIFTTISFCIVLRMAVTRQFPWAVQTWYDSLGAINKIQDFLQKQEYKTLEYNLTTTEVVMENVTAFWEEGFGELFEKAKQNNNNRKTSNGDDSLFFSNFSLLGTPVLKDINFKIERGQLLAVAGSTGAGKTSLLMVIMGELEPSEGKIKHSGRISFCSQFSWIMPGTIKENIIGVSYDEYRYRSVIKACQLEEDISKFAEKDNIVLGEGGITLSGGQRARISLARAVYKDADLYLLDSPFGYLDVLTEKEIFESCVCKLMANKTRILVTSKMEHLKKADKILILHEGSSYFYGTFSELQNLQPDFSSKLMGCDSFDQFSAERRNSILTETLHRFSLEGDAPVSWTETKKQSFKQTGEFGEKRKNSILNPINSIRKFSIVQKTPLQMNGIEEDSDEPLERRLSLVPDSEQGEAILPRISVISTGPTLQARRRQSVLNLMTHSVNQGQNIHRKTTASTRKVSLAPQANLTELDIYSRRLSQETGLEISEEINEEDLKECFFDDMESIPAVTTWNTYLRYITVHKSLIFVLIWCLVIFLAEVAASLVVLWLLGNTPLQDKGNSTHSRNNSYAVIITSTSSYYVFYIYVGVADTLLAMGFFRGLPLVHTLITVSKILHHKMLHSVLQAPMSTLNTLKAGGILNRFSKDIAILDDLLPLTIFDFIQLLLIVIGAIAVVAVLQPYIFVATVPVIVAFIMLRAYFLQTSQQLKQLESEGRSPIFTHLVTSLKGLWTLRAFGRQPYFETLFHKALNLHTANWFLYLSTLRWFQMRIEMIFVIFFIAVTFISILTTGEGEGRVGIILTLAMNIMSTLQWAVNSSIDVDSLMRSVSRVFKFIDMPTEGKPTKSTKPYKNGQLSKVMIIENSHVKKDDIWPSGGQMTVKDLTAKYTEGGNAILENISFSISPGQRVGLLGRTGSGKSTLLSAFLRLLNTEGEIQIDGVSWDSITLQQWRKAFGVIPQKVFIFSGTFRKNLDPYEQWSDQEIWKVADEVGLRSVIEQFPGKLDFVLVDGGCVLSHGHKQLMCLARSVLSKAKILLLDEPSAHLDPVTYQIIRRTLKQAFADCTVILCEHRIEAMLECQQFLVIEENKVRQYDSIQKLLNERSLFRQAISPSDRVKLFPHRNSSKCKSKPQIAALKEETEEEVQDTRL
SMILES,Emax [1],EC50 [2],Maximum % activity (with co-corrector) [3],EC50 [4],Maximum % activity (without co-corrector) [1]
COc1ccc(C(C)(C)C)cc1CN[C@H]1[C@H](C(C)(C)C)[C@@H](C(=O)O)N(C(=O)[C@@H]2CCCCO2)[C@H]1c1ccccc1F [II-460],> 200%,1 to 10 µM,+++ (≥350),< 1 µM,
COc1ncc(C(F)(F)F)cc1N[C@H]1[C@H](C(C)(C)C)[C@@H](C(=O)O)N(C(=O)C2CCCCC2)[C@H]1c1cccnc1N(C)C [II-461],< 100%,1 to 10 µM,++ (≥150 and <350),1 to 10 µM,
COc1ccc(C2(C)CCC2)cc1CN[C@H]1[C@H](C(C)(C)C)[C@@H](C(=O)O)N(C(=O)C2CCCCC2)[C@H]1c1ccccc1 [II-462],> 200%,< 1 µM,+++ (≥350),< 1 µM,
COc1ccc(C(C)(C)C)cc1CN[C@H]1[C@H](C(C)(C)C)[C@@H](C(=O)O)N(C(=O)C2CCC(O)(C(F)(F)F)CC2)[C@H]1c1cccnc1N(C)C (stereo partly shown) [II-463],100 to 200%,1 to 10 µM,+++ (≥350),1 to 10 µM,
COc1ccc(C(C)(C)C)cc1CN[C@H]1[C@H](C(C)(C)C)[C@@H](C(=O)O)N(C(=O)c2ccc(Oc3ccccc3)cc2)[C@H]1c1cccnc1N(C)C [II-464],100 to 200%,< 1 µM,+++ (≥350),< 1 µM,
COc1ccc(C(C)(C)C)cc1CN[C@H]1[C@H](C(C)(C)C)[C@@H](C(=O)O)N(C(=O)c2ccc(OC3CCOCC3)cc2)[C@H]1c1cccnc1N(C)C [II-465],> 200%,1 to 10 µM,+++ (≥350),< 1 µM,
COc1ccc(C(C)(C)C)cc1CN[C@H]1[C@H](C(C)(C)C)[C@@H](C(=O)O)N(C(=O)c2ccc(Oc3ccccn3)cc2)[C@H]1c1cccnc1N(C)C [II-466],> 200%,< 1 µM,+++ (≥350),< 1 µM,
COc1ccc(C(C)(C)C)cc1CN[C@H]1[C@H](C(C)(C)C)[C@@H](C(=O)O)N(C(=O)c2ccc(OC(F)(F)F)cc2)[C@H]1c1cccnc1N(C)C [II-467],100 to 200%,< 1 µM,+++ (≥350),< 1 µM,
COc1ccc(C(C)(C)C)cc1CN[C@H]1[C@H](C(C)(C)C)[C@@H](C(=O)O)N(C(=O)C2CCC(F)(F)CC2)[C@H]1c1cccnc1N(C)C [II-468],100 to 200%,1 to 10 µM,+++ (≥350),1 to 10 µM,
COc1ccc(C(C)(C)C)cc1CN[C@H]1[C@H](C(C)(C)C)[C@@H](C(=O)O)N(C(=O)C2CC(C)CC(C)C2)[C@H]1c1cccnc1N(C)C (stereo partly shown) [II-469],100 to 200%,1 to 10 µM,+++ (≥350),1 to 10 µM,
COc1cc(C(F)(F)F)ccc1CN[C@H]1[C@H](C23CC(C2)C3)[C@@H](C(=O)O)N(C(=O)C2CCCCC2)[C@H]1c1ccccc1 [II-470],100 to 200%,1 to 10 µM,+++ (≥350),< 1 µM,
COc1ncc(C2CCC2)cc1CN[C@H]1[C@H](C(C)(C)C)[C@@H](C(=O)O)N(C(=O)C2COc3ccccc3O2)[C@H]1c1ccccc1 (stereo partly shown) [II-474],100 to 200%,1 to 10 µM,+++ (≥350),1 to 10 µM,
COc1ncc(C2CCC2)cc1CN[C@H]1[C@H](C(C)(C)C)[C@@H](C(=O)O)N(C(=O)c2ccc3c(c2)OCCO3)[C@H]1c1ccccc1 [II-475],< 100%,1 to 10 µM,++ (≥150 and <350),1 to 10 µM,
COc1ncc(C2CCC2)cc1CN[C@H]1[C@H](C(C)(C)C)[C@@H](C(=O)O)N(C(=O)C2CCc3cc(F)ccc3O2)[C@H]1c1ccccc1 (stereo partly shown) [II-476],100 to 200%,1 to 10 µM,+++ (≥350),1 to 10 µM,
COc1ncc(C(F)(F)F)cc1CN[C@H]1[C@H](C(C)(C)C)[C@@H](C(=O)O)N(C(=O)[C@H]2CCCCO2)[C@H]1c1cccnc1N(C)C [II-478],< 100%,1 to 10 µM,++ (≥150 and <350),1 to 10 µM,
COc1ccc(C23CC(C2)C3)cc1CN[C@H]1[C@H](C(C)(C)C)[C@@H](C(=O)O)N(C(=O)[C@@H]2CCC[C@@H](OC)C2)[C@H]1c1ccccc1 [II-479],> 200%,1 to 10 µM,+++ (≥350),1 to 10 µM,
COc1ccc(C(C)(C)C)cc1CN[C@H]1[C@H](C(C)(C)C)[C@@H](C(=O)O)N(C(=O)C2CCc3cc(F)ccc3O2)[C@H]1c1cccnc1N(C)C (stereo partly shown) [II-482],,1 to 10 µM,+++ (≥350),1 to 10 µM,++ (≥100 and <200)
COc1ncc(C(F)(F)F)cc1N[C@H]1[C@H](C(C)(C)C)[C@@H](C(=O)O)N(C(=O)C2C3CCCC32)[C@H]1c1cccnc1N(C)C (stereo partly shown) [II-483],< 100%,1 to 10 µM,++ (≥150 and <350),1 to 10 µM,
COc1ccc(C23CC(C2)C3)cc1CN[C@H]1[C@H](C(C)(C)C)[C@@H](C(=O)O)N(C(=O)C2CCCCC2)[C@H]1c1ccccc1OC [II-484],100 to 200%,< 1 µM,+++ (≥350),< 1 µM,
COc1ncc(C(F)(F)F)cc1N[C@H]1[C@H](C(C)(C)C)[C@@H](C(=O)O)N(C(=O)[C@@H]2CCCC[C@H]2C(F)(F)F)[C@H]1c1cccnc1N(C)C [II-485],< 100%,1 to 10 µM,++ (≥150 and <350),1 to 10 µM,
COc1ccc(C23CC(C2)C3)cc1CN[C@H]1[C@H](C(C)(C)C)[C@@H](C(=O)O)N(C(=O)C2CCCCC2)[C@H]1c1cccnc1OC [II-486],> 200%,1 to 10 µM,+++ (≥350),< 1 µM,
COc1cc(C(F)(F)F)ccc1CN[C@H]1[C@H](C(C)(C)C)[C@@H](C(=O)O)N(C(=O)OC(C)C)[C@H]1c1ccccc1 [II-487],> 200%,1 to 10 µM,+++ (≥350),1 to 10 µM,
COc1ncc(C(F)(F)F)cc1N[C@H]1[C@H](C(C)(C)C)[C@@H](C(=O)O)N(C(=O)C2CCCC(F)(F)C2)[C@H]1c1cccnc1N(C)C (stereo partly shown) [II-488],< 100%,1 to 10 µM,++ (≥150 and <350),1 to 10 µM,
COc1ncc(C2CCC2)cc1CN[C@H]1[C@H](C(C)(C)C)[C@@H](C(=O)O)N(C(=O)C2CCCCO2)[C@H]1c1cccnc1N(C)C (stereo partly shown) [II-491],> 200%,1 to 10 µM,+++ (≥350),1 to 10 µM,
COc1ncc(C2CCC2)cc1CN[C@H]1[C@H](C(C)(C)C)[C@@H](C(=O)O)N(C(=O)C2CCCC(F)(F)C2)[C@H]1c1ccccc1 (stereo partly shown) [II-492],> 200%,1 to 10 µM,+++ (≥350),< 1 µM,
COc1ccc(C2(C)CCC2)cc1CN[C@H]1[C@H](C(C)(C)C)[C@@H](C(=O)O)N(C(=O)[C@H]2CCCCO2)[C@H]1c1cccnc1N(C)C [II-493],> 200%,1 to 10 µM,+++ (≥350),1 to 10 µM,
COc1cc(C(F)(F)F)ccc1CN[C@H]1[C@H](C(C)(C)C)[C@@H](C(=O)O)N(C(=O)[C@H]2CCCCO2)[C@H]1c1cccnc1N(C)C [II-494],< 100%,1 to 10 µM,++ (≥150 and <350),1 to 10 µM,
COc1cc(C(F)(F)F)ccc1CN[C@H]1[C@H](C(C)(C)C)[C@@H](C(=O)O)N(C(=O)[C@@H]2CCCCO2)[C@H]1c1cccnc1N(C)C [II-495],> 200%,1 to 10 µM,+++ (≥350),1 to 10 µM,
